Reference: patent publication US12448392B2, “Spiropiperidine derivatives” (89BIO LTD, priority 2016, dated 2025)
Where a name gives a salt, the structure may show the parent alone.

target: T1, recombinant human baculovirus-expressed GST-tagged FASN (Homo sapiens, UniProt P49327); experiment: biochemical; conditions: not given
T1 construct: GST
T1 sequence (P49327 whole entry): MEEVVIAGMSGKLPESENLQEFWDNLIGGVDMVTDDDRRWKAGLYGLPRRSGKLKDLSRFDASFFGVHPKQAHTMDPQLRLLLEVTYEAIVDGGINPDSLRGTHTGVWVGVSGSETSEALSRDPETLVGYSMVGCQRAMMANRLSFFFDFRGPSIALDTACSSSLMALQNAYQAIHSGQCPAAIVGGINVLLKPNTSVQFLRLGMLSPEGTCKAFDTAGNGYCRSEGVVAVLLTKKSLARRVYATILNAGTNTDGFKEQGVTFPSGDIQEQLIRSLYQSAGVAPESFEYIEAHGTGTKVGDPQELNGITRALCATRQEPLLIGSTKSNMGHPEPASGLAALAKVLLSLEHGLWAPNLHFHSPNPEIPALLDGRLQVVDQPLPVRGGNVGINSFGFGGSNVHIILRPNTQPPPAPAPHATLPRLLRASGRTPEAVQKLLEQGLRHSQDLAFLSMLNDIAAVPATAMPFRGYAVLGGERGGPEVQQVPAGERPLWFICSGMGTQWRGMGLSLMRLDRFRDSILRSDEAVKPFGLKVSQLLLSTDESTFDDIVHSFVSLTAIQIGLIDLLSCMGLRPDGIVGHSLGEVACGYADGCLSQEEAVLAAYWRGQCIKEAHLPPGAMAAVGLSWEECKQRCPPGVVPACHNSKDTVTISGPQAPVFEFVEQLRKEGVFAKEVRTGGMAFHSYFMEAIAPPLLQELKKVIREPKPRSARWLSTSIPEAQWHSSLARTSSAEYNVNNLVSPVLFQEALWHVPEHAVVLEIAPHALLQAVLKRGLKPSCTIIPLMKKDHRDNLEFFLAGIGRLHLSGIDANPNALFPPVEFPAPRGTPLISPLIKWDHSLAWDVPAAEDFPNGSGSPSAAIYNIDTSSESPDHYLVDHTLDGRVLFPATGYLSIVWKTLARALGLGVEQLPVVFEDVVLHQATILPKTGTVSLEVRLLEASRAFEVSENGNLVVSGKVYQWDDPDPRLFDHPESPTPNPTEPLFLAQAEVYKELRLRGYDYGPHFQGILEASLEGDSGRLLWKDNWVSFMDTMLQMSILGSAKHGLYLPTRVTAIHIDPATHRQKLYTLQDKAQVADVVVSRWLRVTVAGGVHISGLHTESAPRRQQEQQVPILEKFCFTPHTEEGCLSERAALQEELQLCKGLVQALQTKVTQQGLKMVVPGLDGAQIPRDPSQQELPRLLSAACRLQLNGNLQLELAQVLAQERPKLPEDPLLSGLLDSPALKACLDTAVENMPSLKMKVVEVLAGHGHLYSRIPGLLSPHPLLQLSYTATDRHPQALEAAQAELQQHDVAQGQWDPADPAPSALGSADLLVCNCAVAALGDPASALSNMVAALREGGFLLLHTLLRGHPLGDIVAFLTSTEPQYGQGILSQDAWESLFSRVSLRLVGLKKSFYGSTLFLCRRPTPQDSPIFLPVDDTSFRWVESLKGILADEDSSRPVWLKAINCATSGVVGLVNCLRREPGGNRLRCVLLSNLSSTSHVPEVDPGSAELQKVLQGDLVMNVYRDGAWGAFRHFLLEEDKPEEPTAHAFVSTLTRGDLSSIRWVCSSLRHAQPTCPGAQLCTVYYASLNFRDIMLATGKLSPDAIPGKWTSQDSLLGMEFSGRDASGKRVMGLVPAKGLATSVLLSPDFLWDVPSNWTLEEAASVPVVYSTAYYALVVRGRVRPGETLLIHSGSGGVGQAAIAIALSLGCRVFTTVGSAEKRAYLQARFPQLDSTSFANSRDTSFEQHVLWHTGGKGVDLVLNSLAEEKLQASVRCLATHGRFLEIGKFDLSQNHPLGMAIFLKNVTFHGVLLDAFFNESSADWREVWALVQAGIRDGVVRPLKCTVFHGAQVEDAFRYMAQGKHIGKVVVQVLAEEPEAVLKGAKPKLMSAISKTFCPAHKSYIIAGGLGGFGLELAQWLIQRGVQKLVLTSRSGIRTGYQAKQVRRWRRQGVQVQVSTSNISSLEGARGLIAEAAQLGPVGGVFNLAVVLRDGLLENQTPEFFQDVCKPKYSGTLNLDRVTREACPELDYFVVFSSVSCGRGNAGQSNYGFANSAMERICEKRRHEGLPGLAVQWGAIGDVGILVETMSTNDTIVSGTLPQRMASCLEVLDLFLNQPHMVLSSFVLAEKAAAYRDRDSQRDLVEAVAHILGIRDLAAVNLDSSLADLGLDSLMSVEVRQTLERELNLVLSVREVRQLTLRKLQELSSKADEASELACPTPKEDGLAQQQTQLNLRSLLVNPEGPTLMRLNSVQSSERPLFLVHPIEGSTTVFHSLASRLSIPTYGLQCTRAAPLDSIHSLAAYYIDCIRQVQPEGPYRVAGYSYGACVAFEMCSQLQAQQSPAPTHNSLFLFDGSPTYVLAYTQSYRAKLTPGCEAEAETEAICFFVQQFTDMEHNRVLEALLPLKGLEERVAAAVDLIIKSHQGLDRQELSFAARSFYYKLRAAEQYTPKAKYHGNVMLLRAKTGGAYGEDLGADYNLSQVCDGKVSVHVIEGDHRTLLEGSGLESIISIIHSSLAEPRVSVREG

`CONC(=O)N1CCC2(CC1)OCCc1cc(-c3ccc4cccnc4c3C)ccc1O2` [Example 80, N-Methoxy-7-(8-methyl-7-quinolyl)spiro[4,5-dihydro-1,3-benzodioxepine-2,4′-piperidine]-1′-carboxamide] and `CONC(=O)N1CCC2(CC1)OCc1cc(-c3ccc4cccnc4c3Cl)ccc1O2` [Example 134, 6-(8-Chloro-7-quinolyl)-N-methoxy-spiro[4H-1,3-benzodioxine-2,4′-piperidine]-1′-carboxamide] fall in the same range of IC50: 1 to 99 nM for the first, 1 to 99 nM for the second.

`CCONC(=O)N1CCC2(CC1)OCc1cc(-c3ccc4c(C)nccc4c3)ccc1O2` [Example 196, N-Ethoxy-6-(1-methyl-6-isoquinolyl)spiro[4H-1,3-benzodioxine-2,4′-piperidine]-1′-carboxamide] and `Cc1nccc2cc(-c3ccc4c(c3)COC3(CCN(C(=O)NOC(C)C)CC3)O4)ccc12` [Example 182, N-Isopropoxy-6-(1-methyl-6-isoquinolyl)spiro[4H-1,3-benzodioxine-2,4′-piperidine]-1′-carboxamide] fall in the same range of IC50: 1 to 99 nM for the first, 1 to 99 nM for the second.

Compared with `O=C(C1CC1)N1CCC2(CC1)OCc1cc(-c3cccnc3)ccc1O2` [Example 225, Cyclopropyl-[6-(3-pyridyl)spiro[4H-1,3-benzodioxine-2,4′-piperidine]-1′-yl]methanone, HCl], `Cc1nccc2cc(-c3ccc4c(c3)COC3(CCN(C(=O)C5CC5)CC3)O4)ccc12` [Example 22, Cyclopropyl-[6-(1-methyl-6-isoquinolyl)spiro[4H-1,3-benzodioxine-2,4′-piperidine]-1′-yl]methanone] is lower in IC50: 1000 to 10000 nM for the first, 1 to 99 nM for the second. The second is the more potent here.

First: O=C(NO)N1CCC2(CC1)OCc1cc(-c3ccc4cccnc4c3Cl)ccc1O2 [Example 136, 6-(8-Chloro-7-quinolyl)spiro[4H-1,3-benzodioxine-2,4′-piperidine]-1′-carbohydroxamic acid]
Second: CCC(=O)N1CCC2(CC1)OCc1cc(-c3ccc4cccnc4c3OC)ccc1O2 [Example 55, 1-[6-(8-Methoxy-7-quinolyl)spiro[4H-1,3-benzodioxine-2,4′-piperidine]-1′-yl]propan-1-one]
The IC50 of the first is higher: 100 to 999 nM for the first, 1 to 99 nM for the second.

First: Cc1nccc2cc(-c3ccc4c(c3)COC3(CCN(C(N)=O)CC3)O4)ccc12 [Example 194, 6-(1-Methyl-6-isoquinolyl)spiro[4H-1,3-benzodioxine-2,4′-piperidine]-1′-carboxamide]
Second: Cc1cc2cc(-c3ccc4c(c3)COC3(CCN(C(N)=O)CC3)O4)ccc2cn1 [Example 201, 6-(3-Methyl-6-isoquinolyl)spiro[4H-1,3-benzodioxine-2,4′-piperidine]-1′-carboxamide]
The IC50 of the first is lower: 100 to 999 nM for the first, 1000 to 10000 nM for the second.

`CCOC(=O)N1CCC2(CC1)OCc1cc(-c3ccc4cnc(Cl)cc4c3)ccc1O2` [Example 198, Ethyl 6-(3-chloro-6-isoquinolyl)spiro[4H-1,3-benzodioxine-2,4′-piperidine]-1′-carboxylate] showed an IC50 of 1000 to 10000 nM.

same assay, conditions: 5 nM FASN, 150 μM NADPH, 10 μM acetyl-CoA, 25 μM malonyl-CoA, 90 minutes incubation; read-out: IC50 data for Compounds of Formula I, Activity

First: Cn1cnc2cc(-c3ccc4c(c3)CCC3(CCN(C(N)=O)CC3)O4)ccc21 [Example 81, 6-(1-Methylbenzimidazol-5-yl)spiro[chromane-2,4′-piperidine]-1′-carboxamide]
Second: NC(=O)N1CCC2(CCc3cc(-c4ccc5occc5c4)ccc3O2)CC1 [Example 73, 6-(Benzofuran-5-yl)spiro[chromane-2,4′-piperidine]-1′-carboxamide]
The IC50 of the first is lower: 100 to 999 nM for the first, 1000 to 10000 nM for the second.

`O=C(NOC1CCCCO1)N1CCC2(CCc3cc(-c4ccc5cccnc5c4Cl)ccc3O2)CC1` (stereo not shown) [Example 65, 6-(8-Chloro-7-quinolyl)-N-tetrahydropyran-2-yloxy-spiro[chromane-2,4′-piperidine]-1′-carboxamide] and `O=C([C@H]1CCCO1)N1CCC2(CCc3cc(-c4ccc5cccnc5c4Cl)ccc3O2)CC1` [Example 11, [6-(8-Chloro-7-quinolyl)spiro[chromane-2,4′-piperidine]-1′-yl]-[(2R)-tetrahydrofuran-2-yl]methanone, HCl] fall in the same range of IC50: 1 to 99 nM for the first, 1 to 99 nM for the second.

`Cc1c(-c2ccc3c(c2)CCC2(CCN(C(=O)[C@H]4CCCO4)CC2)O3)cnc2ccccc12` [Example 4, [6-(4-Methyl-3-quinolyl)spiro[chromane-2,4′-piperidine]-1′-yl]-[(2R)-tetrahydrofuran-2-yl]methanone, HCl] and `CONC(=O)N1CCC2(CCc3cc(-c4cnc5ccccc5c4C)ccc3O2)CC1` [Example 192, N-Methoxy-6-(4-methyl-3-quinolyl)spiro[chromane-2,4′-piperidine]-1′-carboxamide] fall in the same range of IC50: 1 to 99 nM for the first, 1 to 99 nM for the second.

First: CCONC(=O)N1CCC2(CCc3cc(-c4cnc5ccccc5c4C)ccc3O2)CC1 [Example 181, N-Ethoxy-6-(4-methyl-3-quinolyl)spiro[chromane-2,4′-piperidine]-1′-carboxamide]
Second: Cc1c(-c2ccc3c(c2)CC2(CCN(C(=O)NO)CC2)O3)cnc2ccccc12 [Example 161, 5-(4-Methyl-3-quinolyl)spiro[3H-benzofuran-2,4′-piperidine]-1′-carbohydroxamic acid]
The IC50 of the first is lower: 1 to 99 nM for the first, 1000 to 10000 nM for the second. The first is the more potent here.

Compared with `CCCONC(=O)N1CCC2(CCc3cc(-c4ccc5cccnc5c4C)ccc3O2)CC1` [Example 102, 6-(8-Methyl-7-quinolyl)-N-propoxy-spiro[chromane-2,4′-piperidine]-1′-carboxamide], `Cc1c(-c2ccc3c(c2)CCC2(CCN(C(=O)NOCC(C)C)CC2)O3)ccc2cccnc12` [Example 104, N-Isobutoxy-6-(8-methyl-7-quinolyl)spiro[chromane-2,4′-piperidine]-1′-carboxamide] is higher in IC50: 1 to 99 nM for the first, 100 to 999 nM for the second. The first is the more potent here.

First: CCC(=O)N1CCC2(CCc3cc(-c4ccc5cccnc5c4OC)ccc3O2)CC1 [Example 19, 1-[6-(8-Methoxy-7-quinolyl)spiro[chromane-2,4′-piperidine]-1′-yl]propan-1-one]
Second: CCOC(=O)N1CCC2(CCc3cc(-c4ccc5cccnc5c4Cl)ccc3O2)CC1 [Example 71, Ethyl 6-(8-chloro-7-quinolyl)spiro[chromane-2,4′-piperidine]-1′-carboxylate]
The IC50 of the first is lower: 1 to 99 nM for the first, 1000 to 10000 nM for the second.

First: CONC(=O)N1CCC2(CCc3cc(-c4ccc5c(C)nccc5c4)c(C)cc3O2)CC1 [Example 246, N-Methoxy-7-methyl-6-(1-methyl-6-isoquinolyl)spiro[chromane-2,4′-piperidine]-1′-carboxamide]
Second: Cc1c(-c2ccc3c(C)nccc3c2)ccc2c1CCC1(CCN(C(N)=O)CC1)O2 [Example 241, 5-methyl-6-(1-methyl-6-isoquinolyl)spiro[chromane-2,4′-piperidine]-1′-carboxamide]
The IC50 of the first is lower: 100 to 999 nM for the first, 1000 to 10000 nM for the second. The first is the more potent here.

First: Cc1c(-c2ccc3c(c2F)CCC2(CCN(C(N)=O)CC2)O3)ccc2cccnc12 [Example 243, 5-Fluoro-6-(8-methyl-7-quinolyl)spiro[chromane-2,4′-piperidine]-1′-carboxamide]
Second: Cc1c(-c2ccc3c(c2)CC2(CCN(C(N)=O)CC2)O3)ccc2cccnc12 [Example 152, 5-(8-Methyl-7-quinolyl)spiro[3H-benzofuran-2,4′-piperidine]-1′-carboxamide]
The IC50 of the first is higher: 100 to 999 nM for the first, 1 to 99 nM for the second.

`Cc1c(-c2ccc3c(c2)CCC2(CCN(C(=O)NOC(C)C)CC2)O3)ccc2cccnc12` [Example 103, N-Isopropoxy-6-(8-methyl-7-quinolyl)spiro[chromane-2,4′-piperidine]-1′-carboxamide] and `CCNC(=O)N1CCC2(CCc3cc(-c4ccc5cccnc5c4C)ccc3O2)CC1` [Example 97, N-Ethyl-6-(8-methyl-7-quinolyl)spiro[chromane-2,4′-piperidine]-1′-carboxamide] fall in the same range of IC50: 1 to 99 nM for the first, 1 to 99 nM for the second.

First: Cc1cccc2cc(-c3ccc4c(c3)CCC3(CCN(C(=O)[C@H]5CCCO5)CC3)O4)cnc12 [Example 14, [6-(8-Methyl-3-quinolyl)spiro[chromane-2,4′-piperidine]-1′-yl]-[(2R)-tetrahydrofuran-2-yl]methanone, HCl]
Second: Cc1cccc2cc(-c3ccc4c(c3)CCC3(CCN(C(=O)C5CC5)CC3)O4)cnc12 [Example 13, Cyclopropyl-[6-(8-methyl-3-quinolyl)spiro[chromane-2,4′-piperidine]-1′-yl]-methanone, HCl]
The IC50 of the first is lower: 1 to 99 nM for the first, 100 to 999 nM for the second.

Compared with `NC(=O)N1CCC2(CCc3cc(-c4cc5ccccc5[nH]4)ccc3O2)CC1` [Example 236, 6-(1H-Indol-2-yl)spiro[chromane-2,4′-piperidine]-1′-carboxamide], `CCONC(=O)N1CCC2(CCc3cc(-c4cc5ccccc5cn4)ccc3O2)CC1` [Example 149, N-Ethoxy-6-(3-isoquinolyl)spiro[chromane-2,4′-piperidine]-1′-carboxamide] is lower in IC50: 1000 to 10000 nM for the first, 1 to 99 nM for the second.

`CCNC(=O)N1CCC2(CCc3cc(-c4ccc5cccnc5c4Cl)ccc3O2)CC1` [Example 66, 6-(8-chloro-7-quinolyl)-N-ethyl-spiro[chromane-2,4′-piperidine]-1′-carboxamide] and `CCNC(=O)N1CCC2(CCc3cc(-c4ccc5nccn5c4C)ccc3O2)CC1` [Example 110, N-Ethyl-6-(5-methylimidazo[1,2-a]pyridin-6-yl)spiro[chromane-2,4′-piperidine]-1′-carboxamide] fall in the same range of IC50: 1 to 99 nM for the first, 1 to 99 nM for the second.

First: CCONC(=O)N1CCC2(CC1)Cc1cc(-c3ccc4cccnc4c3C)ccc1O2 [Example 154, N-Ethoxy-5-(8-methyl-7-quinolyl)spiro[3H-benzofuran-2,4′-piperidine]-1′-carboxamide]
Second: CONC(=O)N1CCC2(CCc3cc(-c4ccc5cccnc5c4C)cc(Cl)c3O2)CC1 [Example 250, 8-Chloro-N-methoxy-6-(8-methyl-7-quinolyl)spiro[chromane-2,4′-piperidine]-1′-carboxamide]
The IC50 of the first is higher: 1000 to 10000 nM for the first, 100 to 999 nM for the second.

First: Cc1c(-c2cc(Cl)c3c(c2)CCC2(CCN(C(N)=O)CC2)O3)ccc2cccnc12 [Example 249, 8-chloro-6-(8-methyl-7-quinolyl)spiro[chromane-2,4′-piperidine]-1′-carboxamide]
Second: Cc1c(-c2ccc3c(c2)CCC2(CCN(C(N)=O)CC2)O3)ccc2nccn12 [Example 109, 6-(5-Methylimidazo[1,2-a]pyridin-6-yl)spiro[chromane-2,4′-piperidine]-1′-carboxamide]
The IC50 of the first is higher: 1000 to 10000 nM for the first, 100 to 999 nM for the second.

`CCC(=O)N1CCC2(CCc3cc(-c4ccccn4)ccc3O2)CC1` [Example 215, 1-[6-(2-Pyridyl)spiro[chromane-2,4′-piperidine]-1′-yl]propan-1-one, HCl] showed an IC50 of 1000 to 10000 nM.
